Source: patent publication US20210179598A1, “SELECTIVE JAK2 INHIBITOR AND APPLICATION THEREOF” (EAST CHINA UNIVERSITY OF SCIENCE AND TECHNOLOGY, priority 2018, published 2021)

Key:
H3122 cells = assay: CCK-8 cell proliferation detection, H3122 cells; format: cell-based
Excerpt: (§1) WST-8 (chemical name: 2-(2-methoxy-4-nitrophenyl)-3-(4-nitrophenyl)-5-(2,4-disulfo benzene)-2H-tetrazolium monosodium), which is reduced to a highly water-soluble yellow formazan product (Formazan dye) by the dehydrogenase in cells under the action of the electron carrier dimethyl 1-methoxy-5-methylphenazinium sulfate (1-Methoxy PMS). The amount of the produced formazan is proportional to the number of living cells. Therefore, the survival rate of cells can be calculated indirectly by measuring the absorbance at 450 nm. The half inhibition rate of the compound on the proliferation of H3122, SET2, HEL cells can be determined by the CCK-8 method.
(§2) RPIM medium containing 10% FBS was used to culture cells (100 μL per well), and 3500 cells were inoculated into a 96-well plate, and placed in a 37° C., 5% CO2 incubator for 24 h, until 50%-70% of the cell confluence was achieved. Drugs with different concentration gradients were added respectively, and incubated for another 72 hrs. […] And finally the absorption value of each well was measured at 450 nm.
(§3) NOTE: HEL, SET-2, H3122 cells were purchased from ATCC (American type culture collection), Z′-LYTETM kinase assay platform was purchased from Invitrogen, HTRF KinEASETM-TK was purchased from Cisbio, and Cell Counting Kit-8 was purchased from Beyotime.

ALK = ALK (Homo sapiens, UniProt Q9UM73); assay: ALK kinase IC50 test (HTRF); format: biochemical
Chain of ALK (Q9UM73 19-1620, species assumed): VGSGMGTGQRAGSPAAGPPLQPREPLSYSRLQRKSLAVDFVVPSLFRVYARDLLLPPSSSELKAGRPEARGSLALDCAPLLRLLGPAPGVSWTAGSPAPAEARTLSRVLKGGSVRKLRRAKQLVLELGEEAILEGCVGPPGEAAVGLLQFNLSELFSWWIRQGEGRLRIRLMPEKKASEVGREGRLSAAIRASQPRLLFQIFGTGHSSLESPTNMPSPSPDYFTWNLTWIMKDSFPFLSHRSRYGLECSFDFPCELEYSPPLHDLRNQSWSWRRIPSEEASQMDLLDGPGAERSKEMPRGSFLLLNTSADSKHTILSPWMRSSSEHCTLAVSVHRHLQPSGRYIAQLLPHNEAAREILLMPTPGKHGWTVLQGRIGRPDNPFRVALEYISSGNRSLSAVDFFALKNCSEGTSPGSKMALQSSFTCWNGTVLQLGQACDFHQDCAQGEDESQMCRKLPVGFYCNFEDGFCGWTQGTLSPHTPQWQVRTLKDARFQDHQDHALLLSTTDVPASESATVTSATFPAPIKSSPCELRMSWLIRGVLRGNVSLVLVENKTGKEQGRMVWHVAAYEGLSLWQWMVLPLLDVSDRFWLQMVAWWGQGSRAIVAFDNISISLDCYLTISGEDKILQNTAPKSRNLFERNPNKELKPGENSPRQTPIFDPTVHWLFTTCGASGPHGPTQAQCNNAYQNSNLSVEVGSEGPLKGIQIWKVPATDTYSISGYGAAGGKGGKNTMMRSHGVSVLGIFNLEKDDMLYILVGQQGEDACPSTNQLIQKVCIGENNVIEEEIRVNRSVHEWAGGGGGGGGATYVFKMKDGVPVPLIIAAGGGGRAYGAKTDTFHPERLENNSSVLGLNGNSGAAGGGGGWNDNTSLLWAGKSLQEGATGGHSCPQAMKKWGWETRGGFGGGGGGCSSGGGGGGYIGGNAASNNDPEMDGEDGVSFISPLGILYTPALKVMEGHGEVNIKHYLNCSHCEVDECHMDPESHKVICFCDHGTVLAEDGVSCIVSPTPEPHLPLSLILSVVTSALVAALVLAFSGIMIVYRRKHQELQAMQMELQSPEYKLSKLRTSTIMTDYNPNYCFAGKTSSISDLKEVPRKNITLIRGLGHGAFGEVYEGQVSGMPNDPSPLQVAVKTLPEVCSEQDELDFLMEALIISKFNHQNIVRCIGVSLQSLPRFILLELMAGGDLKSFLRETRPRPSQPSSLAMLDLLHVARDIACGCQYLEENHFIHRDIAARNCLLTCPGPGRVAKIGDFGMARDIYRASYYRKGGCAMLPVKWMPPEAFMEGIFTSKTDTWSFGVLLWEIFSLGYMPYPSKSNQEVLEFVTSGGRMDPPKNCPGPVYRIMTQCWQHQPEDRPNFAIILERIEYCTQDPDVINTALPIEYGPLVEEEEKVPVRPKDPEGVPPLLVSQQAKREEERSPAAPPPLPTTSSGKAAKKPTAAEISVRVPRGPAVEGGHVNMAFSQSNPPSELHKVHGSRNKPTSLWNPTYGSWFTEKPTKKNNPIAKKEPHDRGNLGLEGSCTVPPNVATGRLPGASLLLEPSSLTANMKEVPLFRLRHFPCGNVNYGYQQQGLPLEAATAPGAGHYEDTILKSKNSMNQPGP
Excerpt: According to HTRF method, the peptide substrate was labeled with a biotin, which can specifically bind to XL665-labeled streptavidin. When the kinase adds a phosphate group to the polypeptide substrate in the first step, its Eu-labeled specific phosphorylation antibody can recognize and bind to it. In this way, in the second step of detection, a complex of XL665-labeled streptavidin, phosphorylated peptide substrate and Eu-labeled phosphorylation antibody can be formed. Since the distance between XL665 and Eu is short, FRET can be formed. On the other hand, Eu has a relatively long fluorescence half-life and can be applied to time-resolved fluorescence detection.
10 μL of reaction system, 4 μL test compound, 2 μL kinase, 2 μL biotin-labeled substrate and 2 μL ATP, was added into a 384-well plate, shaken for 30 s, and incubated at room temperature for 1 hour. 5 μL of Eu-labeled phosphorylation site-specific antibody and 5 μL of XL665-labeled streptavidin were added. The reaction system was shaken for 30 s, and incubated at room temperature for 1 hour. A microplate reader was used to detect the fluorescence signal. The inhibition rates of the compounds under 8 concentration gradients were determined, and the IC50 value of each compound was calculated by fitting curve with Origin 8.0. […] Each experiment was performed in triplicate.
as §3

SET 2 (JAK2 V617F) cells = assay: CCK-8 cell proliferation detection, SET2 cells; format: cell-based; conditions: Homo sapiens, Table 2, CCK-8, 72 hrs
Excerpt: as §1, §2, §3

HEL (JAK2 V617F) cells = assay: CCK-8 cell proliferation detection, HEL cells; format: cell-based; conditions: Homo sapiens, Table 2, CCK-8, 72 hrs
Excerpt: as §1, §2, §3

JAK2 = JAK2 (Homo sapiens, UniProt O60674); assay: JAK2 kinase activity test at molecular level (Z'-LYTE FRET); format: biochemical; conditions: Table 2; read-out: JAK2 IC50
Chain of JAK2 (O60674 whole entry): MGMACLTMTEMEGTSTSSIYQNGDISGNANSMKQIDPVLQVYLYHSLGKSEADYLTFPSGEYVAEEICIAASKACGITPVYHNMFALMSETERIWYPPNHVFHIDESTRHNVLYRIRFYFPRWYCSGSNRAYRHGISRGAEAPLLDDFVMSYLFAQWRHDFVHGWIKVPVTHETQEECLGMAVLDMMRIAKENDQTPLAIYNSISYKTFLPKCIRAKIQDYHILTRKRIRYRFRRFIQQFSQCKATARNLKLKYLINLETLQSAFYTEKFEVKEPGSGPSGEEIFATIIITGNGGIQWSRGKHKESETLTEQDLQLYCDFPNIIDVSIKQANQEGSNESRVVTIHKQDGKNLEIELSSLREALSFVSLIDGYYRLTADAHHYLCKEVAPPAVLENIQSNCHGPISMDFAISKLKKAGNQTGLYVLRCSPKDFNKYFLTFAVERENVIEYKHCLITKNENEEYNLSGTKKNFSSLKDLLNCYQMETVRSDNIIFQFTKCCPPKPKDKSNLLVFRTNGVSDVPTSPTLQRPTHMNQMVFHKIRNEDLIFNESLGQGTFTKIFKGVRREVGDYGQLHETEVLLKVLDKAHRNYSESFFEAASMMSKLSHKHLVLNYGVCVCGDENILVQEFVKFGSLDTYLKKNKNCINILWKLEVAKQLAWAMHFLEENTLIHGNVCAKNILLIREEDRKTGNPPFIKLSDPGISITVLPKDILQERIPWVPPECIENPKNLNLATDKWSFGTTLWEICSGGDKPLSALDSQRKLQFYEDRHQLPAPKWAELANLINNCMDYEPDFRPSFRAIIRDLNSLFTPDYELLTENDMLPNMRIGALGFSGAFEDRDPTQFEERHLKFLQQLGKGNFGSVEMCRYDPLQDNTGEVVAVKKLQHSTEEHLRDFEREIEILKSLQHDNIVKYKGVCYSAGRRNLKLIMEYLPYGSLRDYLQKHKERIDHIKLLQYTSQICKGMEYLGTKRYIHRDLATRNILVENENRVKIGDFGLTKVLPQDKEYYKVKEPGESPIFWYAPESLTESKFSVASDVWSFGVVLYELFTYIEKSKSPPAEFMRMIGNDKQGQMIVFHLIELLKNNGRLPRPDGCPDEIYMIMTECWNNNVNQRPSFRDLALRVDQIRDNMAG
Procedure: JAK2 can catalyze the transfer of a phosphate group of adenosine triphosphate (ATP) to a polypeptide substrate, and the polypeptide substrate is labeled with two fluorescent groups, coumarin and fluorescein. […] Therefore, the inhibition rates of different compounds can be calculated by measuring the ratio of enzyme-catalyzed substrate phosphorylation percentages.
10 μL reaction system, 2.5 μL test compound, 5 μL kinase/peptide substrate mixture and 2.5 μL ATP solution were added into a 384-well plate, shaken for 30 s, and incubated at room temperature for 1 hour. 5 μL of proteolytic enzyme and 15 μL of the reaction system were added and shaken for 30 s and incubated at room temperature for 1 h. 5 μL of stop reagent was added, and the reaction system with a total volume of 20 μL was shaken for 30 seconds. A microplate reader was used to detect the fluorescence signal. […] The inhibition rates of the compound at 7 concentration gradients were determined, and the IC50 value for each compound was calculated by fitting curve with Origin 8.0.
as §3

[1] = Table 4, configurations of MXY-193
[2] = Homo sapiens, NCI-H3122, Table 2, CCK-8, 72 hrs

| SMILES | IC50 (H3122 cells; Homo sapiens, NCI-H3122, Table 4, configurations of MXY-193) | IC50 (ALK; [1]) | IC50 (H3122 cells; [1]) | IC50 (SET 2 (JAK2 V617F) cells; SET-2, 72 h) | IC50 (H3122 cells; Homo sapiens, NCI-H3122, 72 h, Table 2, CCK-8, 72 hrs) | IC50 (HEL (JAK2 V617F) cells; 72 h) | IC50 (SET 2 (JAK2 V617F) cells; SET-2) | IC50 (JAK2) | IC50 (H3122 cells; [2]) | IC50 (HEL (JAK2 V617F) cells) | IC50 (ALK; Table 2) |
| --- | --- | --- | --- | --- | --- | --- | --- | --- | --- | --- | --- |
| CC(Oc1cc(-c2cnn(C3CCOCC3)c2)cnc1N)c1cc(F)ccc1Cl (single isomer, unassigned) [Configuration 1] | 56.7 µM | 6.5 µM | – | – | – | – | – | – | – | – | – |
| CC(Oc1cc(-c2cnn(C3CCOCC3)c2)cnc1N)c1cc(F)ccc1Cl (single isomer, unassigned) [Configuration 2] | – | > 10 µM | > 100 µM | – | – | – | – | – | – | – | – |
| C[C@@H](Oc1cc(-c2cnn(C3CCNCC3)c2)cnc1N)c1c(Cl)ccc(F)c1Cl [Crizotinib, reference compound] | – | – | – | 0.47 µM | 0.842 ± 0.056 µM | 7.3 µM | – | – | – | – | – |
| CC(Oc1cc(-c2cncnc2)cnc1N)c1cc(F)ccc1Cl (centres unmarked) [MXY-032-45] | – | – | – | – | – | – | > 10 µM | 0.566 ± 0.029 µM | > 100 µM | > 10 µM | 3.67 µM |
| CC(Oc1cc(-c2cnn(C3COC3)c2)cnc1N)c1cc(F)ccc1Cl (centres unmarked) [MXY-032-51] | – | – | – | – | – | – | 31.2 µM | 0.025 ± 0.001 µM | 9.91 ± 1.28 µM | 4.67 µM | 0.335 µM |
| CC(Oc1cc(-c2cnn(C3CCOC3)c2)cnc1N)c1cc(F)ccc1Cl (centres unmarked) [MXY-032-53] | – | – | – | – | – | – | 44.1 µM | 0.027 ± 0.001 µM | 6.34 ± 1.91 µM | 4.54 µM | 1.24 µM |
| CC(Oc1cc(-c2cccc(N3CCOCC3)c2)cnc1N)c1cc(F)ccc1Cl (centres unmarked) [MXY-032-55] | – | – | – | – | – | – | 18.6 µM | 0.528 ± 0.008 µM | 11.6 ± 6.02 µM | 5.99 µM | 3.89 µM |
| CC(Oc1cc(Nc2cc3ccccc3cn2)cnc1N)c1cc(F)ccc1Cl (centres unmarked) [MXY-032-69] | – | – | – | – | – | – | > 50 µM | > 5 µM | 25.3 ± 6.24 µM | 10.7 µM | > 10 µM |
| CC(Oc1cc(Nc2ccc3ccccc3n2)cnc1N)c1cc(F)ccc1Cl (centres unmarked) [MXY-032-85] | – | – | – | – | – | – | > 50 µM | > 10 µM | 12 ± 2.32 µM | 5.74 µM | > 10 µM |
| CC(Oc1cc(Nc2nccc3ccccc23)cnc1N)c1cc(F)ccc1Cl (centres unmarked) [MXY-032-87] | – | – | – | – | – | – | > 50 µM | > 10 µM | 17.4 ± 0.25 µM | 9.47 µM | > 10 µM |
| CCOC(C)n1cc(-c2cnc(N)c(OC(C)c3cc(F)ccc3Cl)c2)cn1 (centres unmarked) [MXY-032-91] | – | – | – | – | – | – | 6.34 µM | 0.157 ± 0.031 µM | 2.08 ± 0.803 µM | 4.56 µM | 5.28 µM |
| COCCCn1cc(-c2cnc(N)c(OC(C)c3cc(F)ccc3Cl)c2)cn1 (centres unmarked) [MXY-032-93] | – | – | – | – | – | – | 2.88 µM | 0.015 ± 0.001 µM | 1.98 ± 0.84 µM | 3.45 µM | 2.33 µM |
| COCCn1cc(-c2cnc(N)c(OC(C)c3cc(F)ccc3Cl)c2)cn1 (centres unmarked) [MXY-032-95] | – | – | – | – | – | – | 3.9 µM | 0.011 ± 0.001 µM | 1.36 ± 0.869 µM | 2.34 µM | 2.36 µM |
| CC(Oc1cc(-c2cn(C)c3ccccc23)cnc1N)c1cc(F)ccc1Cl (centres unmarked) [MXY-89] | – | – | – | – | – | – | 11 µM | 0.695 ± 0.002 µM | 6.874 ± 0.022 µM | 2.44 µM | 7.89 µM |
| CC(Oc1cc(-c2cnn3ccccc23)cnc1N)c1cc(F)ccc1Cl (centres unmarked) [MXY-97] | – | – | – | – | – | – | 4.51 µM | 0.061 ± 0.007 µM | 3.3 ± 0.05 µM | 1.85 µM | 1.23 µM |
| COc1ncc(F)cc1C(C)Oc1cc(-c2cnn(C3CCNCC3)c2)cnc1N (centres unmarked) [MXY-111] | – | – | – | – | – | – | 2.48 µM | – | 0.988 ± 0.047 µM | 12.4 µM | 0.132 µM |
